Results on 38 molecules are retold here after ChEMBL document CHEMBL1136731, “Synthesis and biological evaluation of non-peptidic cyclophilin ligands” (J Med Chem, 2003).

The target of test [1] is Peptidyl-prolyl cis-trans isomerase A (Rattus norvegicus) (UniProt P10111). As to the kind of experiment: In vitro inhibition of the rotamase activity of cyclophilin A (CyPA) […].
For test [2], the target named is Peptidyl-prolyl cis-trans isomerase A (Rattus norvegicus, UniProt P10111). As to the kind of experiment: In vitro inhibition of the rotamase activity of cyclophilin A (CyPA).
Sequence of Peptidyl-prolyl cis-trans isomerase A (P10111 whole entry): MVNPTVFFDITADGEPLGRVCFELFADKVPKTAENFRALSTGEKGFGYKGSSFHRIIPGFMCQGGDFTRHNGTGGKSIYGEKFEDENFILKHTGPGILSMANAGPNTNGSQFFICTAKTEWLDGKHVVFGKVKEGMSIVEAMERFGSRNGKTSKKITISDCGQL

Sequence of Peptidyl-prolyl cis-trans isomerase A (Rattus norvegicus) (P10111 whole entry): as above

Usually inhibition stands for the relative decrease from the control value, in per cent. The low end stands for a weak effect, the high end for a strong effect. Turning to `N#Cc1cccc(NC(=O)NC2CCCC(NC(=O)Nc3cccc(C#N)c3)C2)c1` (stereo not drawn), the inhibition in test [1] turned out to be 22%.

The molecule `O=C(Nc1ccc(Cl)cc1)NC1CCCC(NC(=O)Nc2ccc(Cl)cc2)C1` (stereo not drawn) displayed an inhibition in test [1] of 32%.

Usually IC50 stands for the concentration that inhibits the measured activity by half. A high value points to weaker potency. In test [1], `CN(C)c1ccc(NC(=O)Nc2cc(NC(=O)Nc3ccc(N(C)C)cc3)c(Br)cc2Br)cc1` yielded an inhibition of 98%. The molecule also returned an IC50 in test [2] of 2.9 µM.

In the case of `O=C(Nc1cccc(NC(=O)c2cccnc2)c1)c1cccnc1`, in test [1], the inhibition worked out at 6%.

Take `COc1cccc(NC(=O)Nc2cccc(NC(=O)Nc3cccc(OC)c3)c2)c1`: in test [1], the inhibition came out at 8%.

`COc1cccc(NC(=O)NC2CCCC(NC(=O)Nc3cccc(OC)c3)C2)c1` (stereo not drawn) yielded an inhibition in test [1] of 100%. In test [2], this molecule returned an IC50 of 9.5 µM.

`N#Cc1cccc(NC(=O)Nc2cccc(NC(=O)Nc3cccc(C#N)c3)c2)c1` gave an inhibition in test [1] of 38%.

Molecule `O=C(Cc1ccc2ccccc2c1)Nc1cccc(NC(=O)c2cc(Cl)cc(Cl)c2)c1` had an IC50 in test [2] of 0.88 µM. This counts as sub-micromolar.

For `O=C(Nc1cccc(NC(=O)Nc2ccc(Br)cc2Br)c1)Nc1ccc(Br)cc1Br`, in test [1], the inhibition came to 100%.

In test [1], `CCCCNC(=O)Nc1cccc(NC(=O)NCCCC)c1` registered an inhibition of 23%.

On to `O=C(Nc1ccc(C(F)(F)F)cc1)Nc1cccc(NC(=O)c2cc(Cl)cc(Cl)c2)c1`, for which the IC50 in test [2] stood at 0.94 µM.

In test [1], `O=C(NCc1cccc2ccccc12)Nc1cccc(NC(=O)NCc2cccc3ccccc23)c1` had an inhibition of 100%.

In turn, `Cc1ccc(NC(=O)Nc2cccc(NC(=O)Nc3ccc(C)cc3C)c2)c(C)c1` gave an inhibition in test [1] of 100%.

Molecule `CC(C)(C)NC(=O)NC1CCCC(NC(=O)NC(C)(C)C)C1` (stereo not drawn) returned an inhibition in test [1] of 7%.

Molecule `O=C(Nc1cccc(NC(=O)Nc2ccon2)c1)Nc1ccon1` showed an inhibition in test [1] of 93%. Also, in test [2], the midpoint of inhibition, the IC50, lay at 4 µM.

Turning to `CCc1ccccc1NC(=O)Nc1cccc(NC(=O)c2cc(Cl)cc(Cl)c2)c1`, the IC50 in test [2] stood at 1.41 µM. This counts as single-digit micromolar.

With `S=C(Nc1cc(Cl)cc(Cl)c1)Nc1cccc(NC(=S)Nc2cc(Cl)cc(Cl)c2)c1`, in test [2], 0.48 µM corresponded to half-maximal inhibition (IC50).

The molecule `O=C(Nc1cccc2ccccc12)NC1CCCC(NC(=O)Nc2cccc3ccccc23)C1` (stereo not drawn) gave an inhibition in test [1] of 100%. The same molecule showed an IC50 in test [2] of 4.55 µM.

Take `O=C(NCc1ccccc1)Nc1cccc(NC(=O)NCc2ccccc2)c1`: the inhibition in test [1] came out at 19%.

Molecule `O=C(Cc1ccccc1)Nc1cccc(NC(=O)c2cc(Cl)cc(Cl)c2)c1` had an inhibition in test [1] of 44%.

In turn, `O=C(NCc1ccccc1)Nc1cccc(NC(=O)c2cc(Cl)cc(Cl)c2)c1` gave an IC50 in test [2] of 3.35 µM.

As for `O=C(Nc1ccc(I)cc1)Nc1cc(NC(=O)Nc2ccc(I)cc2)c(Br)cc1Br`, the inhibition in test [1] worked out at 100%. In test [2], this molecule registered an IC50 of 0.59 µM.

`O=C(Cc1cccc2ccccc12)Nc1cccc(NC(=O)c2cc(Cl)cc(Cl)c2)c1` yielded a half-maximal inhibitory concentration (IC50) in test [2] of 1.12 µM.

With `O=C(NC1CCCCC1)NC1CCCC(NC(=O)NC2CCCCC2)C1` (stereo not drawn), in test [1], the inhibition was found to be 24%.

In the case of `O=C(Nc1cc(Cl)cc(Cl)c1)Nc1cccc(NC(=O)c2cc(Cl)cc(Cl)c2)c1`, the IC50 in test [2] is 0.69 µM.

On to `O=C(NC1CCCC(NC(=O)NC23CC4CC(CC(C4)C2)C3)C1)NC12CC3CC(CC(C3)C1)C2` (stereo not drawn), for which the inhibition in test [1] turned out to be 28%.

Regarding `O=C(Nc1cccc(NC(=O)c2cc(Cl)cc(Cl)c2)c1)c1cc(Cl)cc(Cl)c1`, in test [2], the midpoint of inhibition, the IC50, lay at 0.93 µM.

`O=C(CC(c1ccccc1)c1ccccc1)Nc1cccc(NC(=O)c2cc(Cl)cc(Cl)c2)c1`: half-maximal inhibition in test [2] (IC50) was put at 0.87 µM.

In test [1], `O=C(NCc1ccccc1)NC1CCCC(NC(=O)NCc2ccccc2)C1` (stereo not drawn) displayed an inhibition of 11%.

`Cc1ccccc1CNC(=O)Nc1cccc(NC(=O)c2cc(Cl)cc(Cl)c2)c1` returned an IC50 in test [2] of 2.12 µM.

For the molecule `O=C(Nc1cccc(NC(=O)c2cc(Cl)cc(Cl)c2)c1)Nc1ccc(Br)cc1Br`, in test [2], the concentration for half-maximal inhibition (IC50) was found to be 0.62 µM.

`O=C(NCC(c1ccccc1)c1ccccc1)Nc1cccc(NC(=O)NCC(c2ccccc2)c2ccccc2)c1` returned an inhibition in test [1] of 100%.

In test [1], `O=C(Nc1cc(Cl)cc(Cl)c1)NC1CCCC(NC(=O)Nc2cc(Cl)cc(Cl)c2)C1` (stereo not drawn) yielded an inhibition of 100%.

As to `Cc1ccc(NC(=O)NC2CCCC(NC(=O)Nc3ccc(C)cc3C)C2)c(C)c1` (stereo not drawn), in test [1], the inhibition came out at 40%.

As to `O=C(Nc1ccccc1)Nc1cccc(NC(=O)c2cc(Cl)cc(Cl)c2)c1`, in test [2], the midpoint of inhibition, the IC50, lay at 1.18 µM.

As for `O=C(Nc1cc(Cl)cc(Cl)c1)Nc1cccc(NC(=O)Nc2cc(Cl)cc(Cl)c2)c1`, the inhibition in test [1] was determined as 100%.

Regarding `O=C(Nc1ccc(Br)cc1Br)NC1CCCC(NC(=O)Nc2ccc(Br)cc2Br)C1` (stereo not drawn), the inhibition in test [1] turned out to be 100%.

For `O=C(Nc1cccc(NC(=O)Nc2ccccn2)c1)Nc1ccccn1`, the inhibition in test [1] is 0%.
